From US10100341B2, “Tailored oils produced from recombinant oleaginous microorganisms” (Corbion Biotech, Inc., priority 2011, dated 2018)

Key:
[1] = system: Chaetoceros sp.; conditions: 500 ug/ml nourseothricin; cited from earlier work
[2] = system: Thalassiosira pseudonana; conditions: 10 ug/ml nourseothricin; cited from earlier work
[3] = system: Haematococcus pluvialis; conditions: 5 μM norflurazon; cited from earlier work
[4] = system: Dunaliella salina; conditions: 60 mg/L chloramphenicol; cited from earlier work
[5] = system: Dunaliella tertiolecta; conditions: 1 mg/L phleomycin; cited from earlier work
[6] = system: Closterium peracerosum-strigosum-littorale complex; conditions: 3 ug/ml phleomycin; cited from earlier work
[7] = system: Gonium pectorale; conditions: 0.06 ug/ml paromomycin; cited from earlier work
[8] = system: Volvox carteri; conditions: 1.5 ug/ml zeocin; cited from earlier work
[9] = system: Phaeodactylum tricornutum; conditions: 50 ug/ml zeocin; cited from earlier work
[10] = system: Cylindrotheca fusiformis; conditions: 1 mg/ml zeocin; cited from earlier work
[11] = system: Nannochloropsis sp. W2J3B; conditions: 2 ug/ml zeocin; cited from earlier work
[12] = system: Chlorella ellipsoidea; conditions: 30 ug/mL G418; cited from earlier work
[13] = system: Amphidinium sp.; conditions: 3 mg/ml G418; cited from earlier work
[14] = system: Symbiodinium microadriacticum; conditions: 3 mg/ml G418; cited from earlier work
[15] = system: Cyclotella cryptica; conditions: 50% artificial seawater medium, 100 ug/ml G418; cited from earlier work
[16] = system: Navicula saprophila; conditions: artificial seawater medium, 100 ug/ml G418; cited from earlier work
[17] = system: Prototheca moriformis; experiment: Growth in thiamine-free medium (thiamine auxotrophy complementation); type: cell-based; conditions: 2 μM precursor
Description: Thiamine prototrophy in Prototheca moriformis cells was examined using expression of exogenous THIC genes. […] To dissect the lesion responsible for thiamine auxotrophy at the biochemical level, the growth of Prototheca moriformis cells under five different regimes were examined:(1) in the presence of 2 μM thiamine hydrochloride; (2) without thiamine; (3) without thiamine, but with 2 μM hydroxyethyl thiazole (THZ); […] To observe the thiamine auxotrophy of wildtype Prototheca moriformis cells, it was necessary to first deplete cells of internal thiamine reserves. To test growth in medium without thiamine, cells were first grown to stationary phase in medium containing 2 μM thiamine and then the cells were diluted to an optical density at 750 nm (OD750) of approximately 0.05 in medium without thiamine. The diluted cells were then grown once more to stationary phase in medium without thiamine (about 2-3 days). These thiamine-depleted cells were used to inoculate cultures for growth studies in medium without thiamine Wildtype cells were grown in medium with glucose as the carbon source (with or without thiamine) and positive clones with the native transit peptide Coccomyxa C-169 THIC construct were grown in medium with sucrose as the sole carbon source. […]

[18] = system: Chlamydomonas reinhardtii; conditions: 90 ug/ml spectinomycin; cited from earlier work
[19] = system: Prototheca moriformis (UTEX 1435); experiment: cDNA abundance by real-time RT-PCR under nitrogen depletion; type: cell-based; conditions: after 24 hours of culture in low nitrogen medium
Description: A cDNA library was generated from Prototheca moriformis (UTEX 1435) using standard techniques. The Prototheca moriformis cells were grown for 48 hours under nitrogen replete conditions. […] After about 24 hours in culture, the nitrogen supply in the media was completely depleted. The collected samples were immediately frozen using dry ice and isopropanol. Total RNA was subsequently isolated from the frozen cell pellet samples and a portion from each sample was held in reserve for RT-PCR studies. The rest of the total RNA harvested from the samples was subjected to polyA selection. Equimolar amounts of polyA selected RNA from each condition was then pooled and used to generate a cDNA library in vector pcDNA 3.0 (Invitrogen). Roughly 1200 clones were randomly picked from the resulting pooled cDNA library and subjected to sequencing on both strands. Approximately 68 different cDNAs were selected from among these 1200 sequences and used to design cDNA-specific primers for use in real-time RT-PCR studies. RNA isolated from the cell pellet samples that were held in reserve was used as substrate in the real time RT-PCR studies using the cDNA-specific primer sets generated above. This reserved RNA was converted into cDNA and used as substrate for RT-PCR for each of the 68 gene specific primer sets. […] As discussed in the specification, nitrogen depletion/limitation is a known inducer of lipogenesis in oleaginous microorganisms. Fold increase refers to the fold increase in cDNA abundance after 24 hours of culture in low nitrogen medium.

[20] = system: Prototheca moriformis (UTEX 1435); experiment: Steady state thioesterase mRNA level by real-time RT-PCR (promoter testing, normalized to cd189); conditions: low nitrogen medium

Molecule: nourseothricin
- propagation of untransformed cells in medium comprising the agent [1]: unable to propagate
- propagation of untransformed cells in medium comprising the agent [2]: unable to propagate

Molecule: CNc1cnn(-c2cccc(C(F)(F)F)c2)c(=O)c1Cl [norflurazon]
- propagation of untransformed cells in medium comprising the agent [3]: unable to propagate

Molecule: O=C(N[C@H](CO)[C@H](O)c1ccc([N+](=O)[O-])cc1)C(Cl)Cl [chloramphenicol]
- propagation of untransformed cells in medium comprising the agent [4]: unable to propagate

Molecule: phleomycin
- propagation of untransformed cells in medium comprising the agent [5]: unable to be propagated
- propagation of untransformed cells in medium comprising the agent [6]: unable to propagate

Molecule: NC[C@@H]1O[C@H](O[C@H]2[C@@H](O)[C@H](O[C@@H]3[C@@H](O)[C@H](N)C[C@H](N)[C@H]3O[C@H]3O[C@H](CO)[C@@H](O)[C@H](O)[C@H]3N)O[C@@H]2CO)[C@H](N)[C@@H](O)[C@@H]1O [paromomycin]
- propagation of untransformed cells in medium comprising the agent [7]: unable to propagate

Molecule: Cc1c(N)nc([C@H](CC(N)=O)NC[C@H](N)C(N)=O)nc1C(=O)N[C@H](C(=O)N[C@H](C)[C@@H](O)[C@H](C)C(=O)N[C@H](C(=O)NCCC1=N[C@@H](c2nc(C(=O)NCCCCN=C(N)N)cs2)CS1)[C@@H](C)O)[C@@H](O[C@@H]1O[C@@H](CO)[C@@H](O)[C@H](O)[C@@H]1O[C@H]1O[C@H](CO)[C@@H](O)[C@H](OC(N)=O)[C@@H]1O)c1cnc[nH]1 [zeocin]
- propagation of untransformed cells in medium comprising the agent [8]: unable to be propagated
- propagation of untransformed cells in medium comprising the agent [9]: unable to propagate
- propagation of untransformed cells in medium comprising the agent [10]: unable to propagate
- propagation of untransformed cells in medium comprising the agent [11]: unable to propagate

Molecule: CN[C@@H]1[C@@H](O)[C@@H](O[C@@H]2[C@@H](O)[C@H](O[C@H]3O[C@H]([C@@H](C)O)[C@@H](O)[C@H](O)[C@H]3N)[C@@H](N)C[C@H]2N)OC[C@]1(C)O [G418]
- propagation of untransformed cells in medium comprising the agent [12]: unable to be propagated
- propagation of untransformed cells in medium comprising the agent [13]: unable to be propagated
- propagation of untransformed cells in medium comprising the agent [14]: unable to be propagated
- propagation of untransformed cells in medium comprising the agent [15]: unable to propagate
- propagation of untransformed cells in medium comprising the agent [16]: unable to propagate

Molecule: Cc1ncc(CN)c(N)n1 [PYR, 2-methyl-4-amino-5-(aminomethyl)pyrimidine]
- thiamine pyrophosphate production / growth without thiamine with precursor [17]: can only produce thiamine pyrophosphate (TPP) if the PYR precursor is provided

Molecule: CN[C@@H]1[C@H](O)[C@H](NC)[C@H]2O[C@@]3(O)C(=O)C[C@@H](C)O[C@H]3O[C@@H]2[C@H]1O [spectinomycin]
- propagation of untransformed cells in medium comprising the agent [18]: unable to propagate

B1: Aat04-Amino acid transporter 04 promoter/5′UTR: putative nitrogen-regulated promoter/5′UTR, SEQ ID NO: 65 (nucleic acid, listed as Prototheca moriformis)
DNA: CGCGTGGAGCGGTGCGTGCGGATGCCGCGCGCCTGCCAAGGCCTTTTGTATGCCTGGCCTGGGAAGTTTCCTGACTGAAGCATCTTCAAGATGCTCTCTCACGACCAGCGACACCAACACCGTCACTTTTTGCCCCTCCTGCCGCAGGTGCCACTTTCTACTTTGACGTCTTCTCCAGGCGGTACATTGCGGGACTGAGCGCCAATTCGGCCAAGAACAGCGCTGTCGACTTGAGGAGGCAGGGGTCCGTCGACTCTGCCGAGTGACACGCCTTCGACCCGACTGTACTACGGCCTGCTGAAGAGTGGGTCTCGCCGGCCGGCGTGACCGGCCCTGTGCCCACAATCGACCATCTATTCGCTCCTTGTCATCTGGCGCCGTCAATTGCCCGCGACTTGACGGCAACTGGCTCGATCGAGTCGTATTGAAAAAGCACGTTTTGTCCTACAGGGCCGCGGTCCGTTACCAACGTGGTTCTCGTTAGGTTTTCGTCGGGCGGTGGTGCGCGAACTGTCCGATGCCATCCCGGCAAACCCCAGCAAGGTCGCCAGTCTGGTTCTGACGCAATAGAGTGCGTTTTGGGCCAGTCTAAAAATTCGTCTGGCATGACGTGGCTCCACATCGTACCCGGAGCCTGCCTTGGTAATGTGAGGCACCGGTGCCAACTCCATTATGGCAGGCATCGAGCGCGCAGGTGAGTACATGACCTTCCGTGAATTGGGAAGGCGAGCTTGTGTAACGCCTGCGATCGTGCCAGTGAGGCATCGTAAACTCAAAATATTTTGTAGAAAGTGTCTGATGCCTGGTGAGGCTGCGTAGGGCAAGGGCAAGCCCTTGGCAGATGGGTAATGGGTCCGGACCTCACAACAGCAACCCCGCGTCCCCCTTAGGGCCCCTGAGGCTCGATGGCAGGGCCAGCGAGCCCGCGGCCAAAGGGCGCCATCCCACGGTCGCCCAACGACTCCACGGGTCCTATACCTCATCTTGAATGGCACTAAAAACTATAGAATATCGGGCACTGGTGGGCGTCTGGGGTACAGCTGGCCGAGCGCAGTGGCAAACCCTAGGTCCCGCCTCAAGGGCGATTCCCGGGTCAATGACACGCAAGCAAGATCACATGGCGCGGTCCGCCTCGCGGCTCCACACCCAGGCCCTAGTTTCGCAACCCATAAATATCGCCCCGATACCATCATAAGCCAGCAAATAATTTTTTATCAGAGTTCCAAACCTCCTCAGCTGTGGGAAACCAGCCCACTCTGAACG
- Fold increased (cDNA abundance) [19]: 10.95
- steady state C. camphora thioesterase mRNA level relative to control (C. reinhardtii beta tubulin promoter) [20]: up to five

B2: Amt02-Ammonium transporter 02 promoter/5′UTR: putative nitrogen-regulated promoter/5′UTR, SEQ ID NO: 61 (nucleic acid, listed as Prototheca moriformis)
DNA: TCACCAGCGGACAAAGCACCGGTGTATCAGGTCCGTGTCATCCACTCTAAAGAGCTCGACTACGACCTACTGATGGCCCTAGATTCTTCATCAAAAACGCCTGAGACACTTGCCCAGGATTGAAACTCCCTGAAGGGACCACCAGGGGCCCTGAGTTGTTCCTTCCCCCCGTGGCGAGCTGCCAGCCAGGCTGTACCTGTGATCGGGGCTGGCGGGAAAACAGGCTTCGTGTGCTCAGGTTATGGGAGGTGCAGGACAGCTCATTAAACGCCAACAATCGCACAATTCATGGCAAGCTAATCAGTTATTTCCCATTAACGAGCTATAATTGTCCCAAAATTCTGGTCTACCGGGGGTGATCCTTCGTGTACGGGCCCTTCCCTCAACCCTAGGTATGCGCACATGCGGTCGCCGCGCAACGCGCGCGAGGGCCGAGGGTTTGGGACGGGCCGTCCCGAAATGCAGTTGCACCCGGATGCGTGGCACCTTTTTTGCGATAATTTATGCAATGGACTGCTCTGCAAAATTCTGGCTCTGTCGCCAACCCTAGGATCAGCGGTGTAGGATTTCGTAATCATTCGTCCTGATGGGGAGCTACCGACTGCCCTAGTATCAGCCCGACTGCCTGACGCCAGCGTCCACTTTTGTGCACACATTCCATTCGTGCCCAAGACATTTCATTGTGGTGCGAAGCGTCCCCAGTTACGCTCACCTGATCCCCAACCTCCTTATTGTTCTGTCGACAGAGTGGGCCCAGAGGCCGGTCGCAGCC
- Fold increased (cDNA abundance) [19]: 10.76
- steady state C. camphora thioesterase mRNA level relative to control (C. reinhardtii beta tubulin promoter) [20]: up to three
